US12030824B2 (priority 2016, dated 2024)
“Also recorded” adds a separate entry of the source.

Assays:
plant growth = experiment: Applicant's observation of plant growth induction by 1-octen-3-ol; format: in vivo; settings: very low concentrations
[1] = system: root knot nematode, Meloidgyne javanica; experiment: Split-root greenhouse trial on tomato with root knot nematode (Nemlab); format: in vivo; settings: for overall effectiveness in nematode control: split-root greenhouse trial; for Number of Eggs/Root System, Pot 1—nem. alone (of split root system) / Numbers of female nematodes/root, Pot 1—nem. alone (of split root system) / Galling Index, Pot 1—nem. alone (of split root system) / Number of Eggs/Root System, Pot 2—agent + nematode (of split root system) / Numbers of female nematodes/root, Pot 2—agent + nematode (of split root system) / Galling Index, Pot 2—agent + nematode (of split root system): tomato split root; for Number of Eggs/Root System, Pot 1—nem. alone (of split root system) / Numbers of female nematodes/root, Pot 1—nem. alone (of split root system): root half with M. javanica only; for Galling Index, Pot 1—nem. alone (of split root system): root half with M. javanica only (systemic), scale 0 no galls to 5 100% of roots with galls; for Number of Eggs/Root System, Pot 2—agent + nematode (of split root system) / Numbers of female nematodes/root, Pot 2—agent + nematode (of split root system) / Galling Index, Pot 2—agent + nematode (of split root system): root half with M. javanica plus agent; for Galling Index, Pot 2—agent + nematode (of split root system): scale 0 no galls to 5 100%
Experimental: Comprehensive evaluation of the strains in greenhouse trials. […] It is difficult to obtain statistically valid results directly on nematode control from natural infestations since the levels of nematodes differ widely on a microsite level. Therefore, controlled greenhouse tests were conducted with Nemlab, a company in South Africa who specializes in nematode control testing. This trial was designed to consider mechanisms as well as direct contact control. As noted earlier, induction of systemic resistance was considered highly desirable, and would be expected given the generalized mechanisms of action described in Example 3, FIG. 8. To assess this character, tomato plants were grown for 6 weeks and then the roots were split into two, and each half root was placed into a separate pot with a single shoot. Except for water controls, 500-1000 eggs of the root knot nematode, Meloidgyne javanica were placed into each root system, but only one side, the various treatments were placed the biocontrol agents at 10^8 cfu/g soil. So, one root system of each plant contained nematodes only while the other contained nematodes plus the treatments. The treatments are shown below; there were six replicates per treatment. […] The experiment was designed to evaluate the ability of each strain to directly control (pot 2) and to control at-a-distance, the nematodes. […] There were a number of evaluations made of the plants at the end of the experiment, and the most important are shown below in Table 4 ([…] Index). Root galling is an index of the formation of 'knots' on roots that give root knot nematode its name and is an index of the root damage. The galls are the areas where the nematode is infesting the root and laying its eggs. The scale=0, no galls, 1, visible galling, 2, 25% of roots with galls, 3, 50% of roots with galls, 4, 75%, and 5, 100%.

White flies = experiment: Control of white flies on greenhouse tomatoes with OPB+microbial strains; format: in vivo, Bremia spp.; settings: single spray
[2] = system: cabbage aphid Brevicoryne brassicae; experiment: Control of aphids on cabbage, single spray; format: in vivo; settings: white flies on tomato and cabbage aphids on cabbage
maize = experiment: ABM trials and field testing of commercial products and strains on corn; format: in vivo
corn (Zea mays) = experiment: Corn field trial ABM14 (1st field trial), seed treatments; format: in vivo; settings: both ABM14 and ABM15 studies
[3] = system: plant parasitic nematodes; experiment: Field trials with sunflowers in South Africa, root galling; format: in vivo; settings: sunflower, naturally infested field, FIG. 12
Experimental: Field trials with sunflowers in the field in South Africa. Trials were conducted in the Republic of South Africa. Sunflower seeds were treated with various microorganisms and planted into soil infested with plant parasitic nematodes. After the plants were mature, roots were harvested and rated for root galling caused by the nematodes. The variability was quite large in this naturally infested field.

corn = experiment: Corn trials in the greenhouse, seed treatment; format: in vivo; settings: FIG. 2
Description: Corn trials in the greenhouse. […] The growth differences are clearly evident.

wheat = experiment: Greenhouse wheat seedlings, foliar spray; format: in vivo; settings: foliar spray vs water only; FIG. 3
Description: Trichoderma strain K5 increases growth in greenhouse grown wheat when applied as a foliar treatment. […] Control plants were sprayed with water only.

soybean = experiment: Greenhouse soybean in sand tubes, seed treatment; format: in vivo; settings: stem length, Spad, root weight, root volume; FIG. 4; significant at alpha=0.05 or 0.01
Experimental: Trichoderma strain K5 increases growth in soybean in the greenhouse when applied as a seed treatment. Soybean seeds were treated with either T. virens NRRL B-5025 strain or left untreated with no other microbial or chemical treatments being applied. These were planted into sand tubes and growth data was collected as the seeds emerged and the seedlings grew. […] All of the differences shown in FIG. 4 are significant at alpha=0.05 or 0.01.

nematodes = experiment: Field trial in Iowa in a field heavily infested with nematodes: yields; settings: Iowa nematode-infested field

C=CC(O)CCCCC (stereo not shown) [1-octen-3-ol]
induction of plant growth (plant growth): potent inducer of enhanced plant growth

Bacillus amyloliquifaciens [Bacillus AS2]
overall effectiveness in nematode control [1]: nearly as good an effect | Number of Eggs/Root System, Pot 1—nem. alone (of split root system) [1]: 2481 | Numbers of female nematodes/root, Pot 1—nem. alone (of split root system) [1]: 14.67 | Galling Index, Pot 1—nem. alone (of split root system) [1]: 2.3 | Number of Eggs/Root System, Pot 2—agent + nematode (of split root system) [1]: 970 | Numbers of female nematodes/root, Pot 2—agent + nematode (of split root system) [1]: 8.16 | Galling Index, Pot 2—agent + nematode (of split root system) [1]: 2.0 | duration of white fly control (White flies): effects continued at least three weeks | conclusion from the combined two experiments [2]: highly effective

T. virens strain ATCC 20906 [Trichoderma K1]
Number of Eggs/Root System, Pot 1—nem. alone (of split root system) [1]: 45631 | Numbers of female nematodes/root, Pot 1—nem. alone (of split root system) [1]: 25.17 | Galling Index, Pot 1—nem. alone (of split root system) [1]: 3.33 | Number of Eggs/Root System, Pot 2—agent + nematode (of split root system) [1]: 48765 | Numbers of female nematodes/root, Pot 2—agent + nematode (of split root system) [1]: 35.7 | Galling Index, Pot 2—agent + nematode (of split root system) [1]: 3.17 | duration of white fly control (White flies): effects continued at least three weeks | conclusion from the combined two experiments [2]: highly effective | impact on corn in field testing (maize): negative impact on corn

Trichoderma gamsii (NRRL B-50520) [Trichoderma K5]
overall effectiveness in nematode control [1]: most effective treatment | Number of Eggs/Root System, Pot 1—nem. alone (of split root system) [1]: 1298 | Numbers of female nematodes/root, Pot 1—nem. alone (of split root system) [1]: 4.0 | Galling Index, Pot 1—nem. alone (of split root system) [1]: 1.3 | Number of Eggs/Root System, Pot 2—agent + nematode (of split root system) [1]: 493 | Numbers of female nematodes/root, Pot 2—agent + nematode (of split root system) [1]: 8.5 | Galling Index, Pot 2—agent + nematode (of split root system) [1]: 2.17 | duration of white fly control (White flies): effects continued at least three weeks | conclusion from the combined two experiments [2]: highly effective | grain yields (corn (Zea mays)): largest grain yields | root galling index [3]: lowest numerical galling index of the biological treatments | growth of corn plants (corn): improved growth and development | growth of wheat seedlings (wheat): clearly larger and more vigorous; also recorded: significant growth increase | soybean seedling growth (soybean): significantly increase soybean seedling growth | yield performance (nematodes): excellent performance
